Structures can show the parent of a compound that is named as a salt. Where two headings read alike, the source gives them in different places.
What was measured:
[1] = molecular target: T1, crude extract AChE from R. padi (Rhopalosiphum padi, UniProt Q6BCH8); experiment: Inhibition of crude extract AChE from R. padi (Ellman method, 5 min preincubation); type: biochemical; conditions: for inhibitory percentage of AChE specific activity: inhibitor 10 µM
Experimental: (§1) Step 1: Preparation of crude extract. About 1.0 g apterous adults were homogenized in 10 mL ice-cold 0.1 M phosphate buffer (pH 7.5), containing 0.2 M NaCl and 0.5 % (v/v) Triton X-100 and three protease inhibitors (1 mM EDTA-Na2, 1 µM leupeptin, and 10 µM PMSF). The homogenate was filtered through cheesecloth and then centrifuged at 41,000 g, 4°C for 1 h. The supernatant, after being filtered through glass wool, was used as crude extract.
(§2) AChE activities were determined according to the method of Ellman et al. ([1961]) modified by Gao ([1987]), using ATCh, PrTCh, MeTCh and BuTCh as substrates. The AChE activities were determined at 6 substrate concentrations from 0.15625 to 5 mM based on the reaction at 30°C for 15 min and the reaction was stopped by the addition of 900 µL, DTNB (0.125 mM) with 40% ethanol, then the optical density (OD) was measured at 412 nm by spectrophotometer (Lambda Bio 40).
(§3) The value of median inhibition concentration (I50) for the inhibitors were calculated based on log (inhibitor concentration) vs. probit (percentage of inhibition) linear regression.

[2] = molecular target: T2, crude extract AChE from S. avenae (Sitobion avenae, UniProt Q66S75); experiment: Inhibition of crude extract AChE from S. avenae (Ellman method, 5 min preincubation); type: biochemical; conditions: for I50 times higher in S. avenae than in R. padi: ratio of I50 values of Table 4
T2 sequence (Q66S75 23-664): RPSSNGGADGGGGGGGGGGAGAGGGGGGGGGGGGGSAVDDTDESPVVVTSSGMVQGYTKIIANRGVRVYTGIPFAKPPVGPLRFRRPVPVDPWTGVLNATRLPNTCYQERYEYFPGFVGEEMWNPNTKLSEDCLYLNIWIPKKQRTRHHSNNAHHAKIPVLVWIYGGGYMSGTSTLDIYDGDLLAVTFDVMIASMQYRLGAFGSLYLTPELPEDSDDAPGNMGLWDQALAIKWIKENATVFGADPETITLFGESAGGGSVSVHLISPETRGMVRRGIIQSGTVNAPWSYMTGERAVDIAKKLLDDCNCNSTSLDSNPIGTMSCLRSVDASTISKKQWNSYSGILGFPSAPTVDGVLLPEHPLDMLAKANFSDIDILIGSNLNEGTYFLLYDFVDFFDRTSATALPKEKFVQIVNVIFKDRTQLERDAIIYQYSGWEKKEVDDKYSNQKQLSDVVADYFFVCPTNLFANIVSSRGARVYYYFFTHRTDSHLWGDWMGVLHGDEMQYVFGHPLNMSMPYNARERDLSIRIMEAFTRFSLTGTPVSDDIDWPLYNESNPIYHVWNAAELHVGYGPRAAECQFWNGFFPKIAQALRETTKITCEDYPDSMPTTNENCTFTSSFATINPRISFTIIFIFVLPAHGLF
Experimental: as §1, §2, §3

[3] = molecular target: T3, purified AChE from R. padi (Rhopalosiphum padi, UniProt Q6BCH8); experiment: Inhibition of purified AChE from R. padi (Ellman method, 5 min preincubation); type: biochemical; conditions: for inhibitory percentage of AChE specific activity: inhibitor 10 µM
T3 sequence (Q6BCH8 18-652): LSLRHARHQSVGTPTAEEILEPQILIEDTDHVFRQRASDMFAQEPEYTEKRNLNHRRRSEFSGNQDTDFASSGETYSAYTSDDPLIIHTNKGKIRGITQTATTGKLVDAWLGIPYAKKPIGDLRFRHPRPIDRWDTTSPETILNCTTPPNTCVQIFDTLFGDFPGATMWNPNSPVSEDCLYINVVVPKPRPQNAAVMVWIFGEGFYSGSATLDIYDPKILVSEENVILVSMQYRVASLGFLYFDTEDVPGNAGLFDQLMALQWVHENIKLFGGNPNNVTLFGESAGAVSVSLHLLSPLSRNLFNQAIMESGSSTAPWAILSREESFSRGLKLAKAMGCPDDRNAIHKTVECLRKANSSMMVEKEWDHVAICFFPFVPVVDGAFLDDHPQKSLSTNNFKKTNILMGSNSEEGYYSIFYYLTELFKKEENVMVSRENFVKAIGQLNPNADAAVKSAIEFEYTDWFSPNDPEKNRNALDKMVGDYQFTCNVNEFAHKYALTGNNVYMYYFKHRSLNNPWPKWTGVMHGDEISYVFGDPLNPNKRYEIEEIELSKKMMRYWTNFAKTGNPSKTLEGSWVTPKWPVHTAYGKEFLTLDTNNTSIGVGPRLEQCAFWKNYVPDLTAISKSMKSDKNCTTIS
Experimental: (§4) Purification of AChE from both aphid species was performed by affinity chromatography using procainamide as the affinity ligand. The procedure used in this study was according to the method of Gao and Zhu ([2001]) with some modifications, as follows:
as §1
(§5) Step 2: Chromatography on sephadex G-25. […] The fractions (5 ml each) were collected at the flow rate of 45 mL/h at 4°C. All the fractions containing the AChE activity were collected as the enzyme resource for the next step.
(§6) Step 3: Procainamide affinity chromatography and removal of procainamide and condensation. The procainamide-based AChE affinity column was made according to the instructions from the manufacturer. […] The collected AChE dialyzed against 0.05 M, pH 7.5 phosphate buffer three times for 3 h. The enzyme was stored at 4°C and used as the enzyme source.
as §2, §3

[4] = molecular target: T4, purified AChE from S. avenae (Sitobion avenae, UniProt Q66S75); experiment: Inhibition of purified AChE from S. avenae (Ellman method, 5 min preincubation); type: biochemical
T4 sequence (Q66S75 23-664): T2 sequence (Q66S75 23-664)
Experimental: as §4, §1, §5, §6, §2, §3

[5] = molecular target: T1, crude extract AChE from R. padi; experiment: Substrate specificity and kinetic analysis of crude extract AChE from R. padi; type: biochemical; conditions: compound as substrate, 30°C; for Km: read-out: Km ± SE
Experimental: as §1, §2
(§7) All statistical tests were performed by using SAS computer program (USA). Values of Michalelis-Menten constants (Km) and maximal velocities (Vmax) for four substrates were calculated by Enzfitter software (Biosoft, http://www.biosoft.com/).

[6] = molecular target: T2, crude extract AChE from S. avenae; experiment: Substrate specificity and kinetic analysis of crude extract AChE from S. avenae; type: biochemical; conditions: compound as substrate, 30°C; for Km: read-out: Km ± SE
Experimental: as §1, §2, §7

[7] = molecular target: T3, purified AChE from R. padi; experiment: Substrate specificity and kinetic analysis of purified AChE from R. padi; type: biochemical; conditions: for Vmax ± SE / Km: compound as substrate, 30°C; for Km: read-out: Km ± SE
Experimental: as §4, §1, §5, §6, §2, §7

[8] = molecular target: T4, purified AChE from S. avenae; experiment: Substrate specificity and kinetic analysis of purified AChE from S. avenae; type: biochemical; conditions: for Vmax ± SE / Km: compound as substrate, 30°C; for Km: read-out: Km ± SE
Experimental: as §4, §1, §5, §6, §2, §7

[9] = molecular target: T1, crude extract AChE from R. padi; conditions: comparison of the two aphid species; ref Lu and Gao 2009; cited from earlier work
S. avenae and R. padi = conditions: comparison of the two aphid species, ref Lu and Gao 2009, cited from earlier work
[10] = molecular target: T3, purified AChE from R. padi; experiment: Substrate specificity and kinetic analysis of purified AChE from R. padi; type: biochemical; conditions: substrate 15 mM
[11] = preincubation 5 min at 30°C, mean of three determinations, read-out: I50 ± SE (median inhibition concentration)
[12] = S. avenae, preincubation 5 min at 30°C, mean of three determinations, read-out: I50 ± SE (median inhibition concentration)

T1 sequence (Q6BCH8 18-652): as above

Compound | Vmax ± SE [5] | Km [5] | Vmax ± SE [6] | Km [6] | Vmax ± SE [7] | Km [7] | Vmax ± SE [8] | Km [8] | other results
C=CC[N+](C)(C)c1ccc(CCC(=O)CCc2ccc([N+](C)(C)CC=C)cc2)cc1.[Br-].[Br-] [BW284C51, 1,5-bis(4-allyldimethylammoniumphenyl)-pentan-3-one dibromide] |  |  |  |  |  |  |  |  | inhibitory percentage of AChE specific activity [1]: about 50%; IC50 [1, 11]: 9.7 ± 1 µM; IC50 [2, 12]: 24.7 ± 4.9 µM; I50 times higher in S. avenae than in R. padi [2]: 2.5 times; inhibitory percentage of AChE specific activity [3]: > 80%; IC50 [3, 11]: 2.57 ± 0.34 µM; inhibitory percentage of AChE specific activity ([4]; S. avenae, inhibitor 10 µM): > 80%; IC50 [4, 12]: 1 ± 0.13 µM; I50 fold lower in S. avenae than in R. padi ([4]; from I50 values of Table 5): 0.4 fold
CCC(=O)SCC[N+](C)(C)C.[I-] [PrTCh, propionylthiocholine iodide] | 0.76 ± 0.03 nmol/min/mg protein | 180 ± 40 µM | 1.04 ± 0.15 nmol/min/mg protein | 570 ± 260 µM | 24.24 ± 0.30 nmol/min/mg protein | 850 ± 30 µM | 94.01 ± 4.41 nmol/min/mg protein | 930 ± 120 µM | 
Cc1nc(N(C)C)nc(OC(=O)N(C)C)c1C [Pirimicarb] |  |  |  |  |  |  |  |  | sensitivity of AChE to pirimicarb, R. padi versus S. avenae [9]: significantly higher in R. padi than in S. avenae; susceptibility / tolerance to pirimicarb in bioassays, S. avenae versus R. padi (S. avenae and R. padi): higher for S. avenae than for R. padi; susceptibility / tolerance to pirimicarb in bioassays, S. avenae versus R. padi (S. avenae and R. padi; listed as pirimicarb): R. padi was more susceptible than S. avenae
CC(=O)SCC[N+](C)(C)C.[I-] [ATCh, Acetylthiocholine iodide] | 1.27 ± 0.05 nmol/min/mg protein | 360 ± 50 µM | 1.16 ± 0.11 nmol/min/mg protein | 650 ± 190 µM | 37.58 ± 1.01 nmol/min/mg protein | 2180 ± 130 µM | 152.75 ± 3.63 nmol/min/mg protein | 2280 ± 120 µM | substrate concentration at which substrate inhibition was observed [7]: > 10 mM; substrate concentration at which substrate inhibition was observed [8]: > 10 mM; specific activity of purified AChE [10]: 20.3 nmol/min/mg
CC(=O)SC(C)C[N+](C)(C)C (stereo not drawn) [MeTCh, acetyl-(β-methyl) thiocholine] | 1.10 ± 0.07 nmol/min/mg protein | 290 ± 80 µM | 1.01 ± 0.10 nmol/min/mg protein | 400 ± 140 µM | 31.58 ± 1.03 nmol/min/mg protein | 2450 ± 170 µM | 118.32 ± 5.64 nmol/min/mg protein | 2230 ± 230 µM | substrate concentration at which substrate inhibition was observed [7]: > 10 mM; substrate concentration at which substrate inhibition was observed [8]: > 10 mM; specific activity of purified AChE [10]: 17.7 nmol/min/mg
CCCC(=O)SCC[N+](C)(C)C.[I-] [BuTCh, butyrylthiocholine iodide] | 4.12 ± 1.34 nmol/min/mg protein | 5340 ± 2790 µM | 11.88 ± 3.88 nmol/min/mg protein | 15100 ± 6210 µM | 2.17 ± 0.09 nmol/min/mg protein | 670 ± 80 µM | 9.09 ± 0.14 nmol/min/mg protein | 1690 ± 60 µM | 
CNC(=O)Oc1ccc2c(c1)[C@]1(C)CCN(C)[C@@H]1N2C [Eserine, eserine hemisulfate salt] |  |  |  |  |  |  |  |  | inhibitory percentage of AChE specific activity [1]: about 50%; I50 times higher in S. avenae than in R. padi [2]: 4.1 times; inhibitory percentage of AChE specific activity [3]: more than 90%
